Assay results taken from patent US20220323406A1, “METHODS AND COMPOSITIONS FOR DIFFERENTIATING STEM CELLS” (Massachusetts Institute of Technology, priority 2019, published 2022).
Where a name gives a salt, the structure may show the parent alone.

Key:
ENR+CD organoids = assay: Primary screen: ATP (CellTiter-Glo 3D, CTG) cell number/viability, 2.5-D 384-well ENR+CD organoids; conditions: primary screen; for Z.CTG: standard z score;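 as to all read-outs here: compounds given at plating and again on day 3 over a 6-day differentiation from ENR+CV stem-cell-enriched precursors, ATP measured on day 6, plate median as control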
[1] = system: ENR+CD organoids (ISC to Paneth cell differentiation); assay: Primary screen: CCh-stimulated lysozyme secretion LYZ.S, 2.5-D 384-well ENR+CD organoid differentiation; assay type: cell-based, mouse; conditions: primary screen
Excerpt: (§1) High-throughput screening.

[2] = system: ENR+CD organoids (ISC to Paneth cell differentiation); assay: Primary screen: basal (non-stimulated) lysozyme secretion LYZ.NS, 2.5-D 384-well ENR+CD organoid differentiation; assay type: cell-based, mouse; conditions: primary screen; for Z.LYZ.NS: standard z score
Excerpt: as §1

[3] = dose 0.08 uM, FC vs plate median
[4] = dose 0.40 uM, FC vs plate median
[5] = dose 2.00 uM, FC vs plate median
[6] = dose 10.00 uM, FC vs plate median
[7] = dose 0.08 uM, FC relative to plate median
[8] = dose 0.40 uM, FC relative to plate median
[9] = dose 2.00 uM, FC relative to plate median
[10] = dose 10.00 uM, FC relative to plate median

| SMILES | Z.CTG (ENR+CD organoids; dose 0.08 uM) | Z.CTG (ENR+CD organoids; dose 0.40 uM) | Z.CTG (ENR+CD organoids; dose 2.00 uM) | Z.CTG (ENR+CD organoids; dose 10.00 uM) | Dose.FC.CTG (ENR+CD organoids; dose 0.08 uM) [log2 fold change] | Dose.FC.CTG (ENR+CD organoids; dose 0.40 uM) [log2 fold change] | Dose.FC.CTG (ENR+CD organoids; dose 2.00 uM) [log2 fold change] | Dose.FC.CTG (ENR+CD organoids; dose 10.00 uM) [log2 fold change] | Dose.FC.LYZ.S ([1]; dose 0.08 uM) [log2 fold change] | Dose.FC.LYZ.S ([1]; dose 0.40 uM) [log2 fold change] | Dose.FC.LYZ.S ([1]; dose 2.00 uM) [log2 fold change] | Dose.FC.LYZ.S ([1]; dose 10.00 uM) [log2 fold change] | Dose.FC.LYZ.NS ([2]; dose 0.08 uM) [log2 fold change] | Z.LYZ.NS (standard z score) ([2]; dose 0.08 uM) | Dose.FC.LYZ.NS ([2]; dose 0.40 uM) [log2 fold change] | Z.LYZ.NS (standard z score) ([2]; dose 0.40 uM) | Dose.FC.LYZ.NS ([2]; dose 2.00 uM) [log2 fold change] | Z.LYZ.NS (standard z score) ([2]; dose 2.00 uM) | Dose.FC.LYZ.NS ([2]; dose 10.00 uM) [log2 fold change] | Z.LYZ.NS (standard z score) ([2]; dose 10.00 uM) | also measured |
| --- | --- | --- | --- | --- | --- | --- | --- | --- | --- | --- | --- | --- | --- | --- | --- | --- | --- | --- | --- | --- | --- |
| COc1ccc(-c2cnc3c(-c4cccc5ncccc45)cnn3c2)cc1 [ML347] | 0.439 | 0.500 | 0.328 | −0.404 | – | – | – | – | – | – | – | – | – | – | – | – | – | – | – | – | Dose.FC.CTG (ENR+CD organoids; [3]): 0.184 log2 fold change; Dose.FC.CTG (ENR+CD organoids; [4]): 0.209 log2 fold change; Dose.FC.CTG (ENR+CD organoids; [5]): 0.137 log2 fold change; Dose.FC.CTG (ENR+CD organoids; [6]): −0.169 log2 fold change; Dose.FC.LYZ.S [1, 3]: 0.094 log2 fold change; Dose.FC.LYZ.S [1, 4]: 0.111 log2 fold change; Dose.FC.LYZ.S [1, 5]: 0.072 log2 fold change; Dose.FC.LYZ.S [1, 6]: −0.202 log2 fold change; Z.LYZ.NS ([2]; dose 0.08 uM): 1.079; Z.LYZ.NS ([2]; dose 0.40 uM): 1.150; Z.LYZ.NS ([2]; dose 2.00 uM): 0.600; Z.LYZ.NS ([2]; dose 10.00 uM): −1.078; Dose.FC.LYZ.NS [2, 3]: 0.124 log2 fold change; Dose.FC.LYZ.NS [2, 4]: 0.132 log2 fold change; Dose.FC.LYZ.NS [2, 5]: 0.069 log2 fold change; Dose.FC.LYZ.NS [2, 6]: −0.124 log2 fold change |
| O=C1NC(=O)/C(=C/c2cccc(C(F)(F)F)c2)S1 [SMI-4a] | −0.366 | −0.758 | −0.793 | −0.781 | – | – | – | – | – | – | – | – | – | – | – | – | – | – | – | – | Dose.FC.CTG (ENR+CD organoids; [7]): −0.153 log2 fold change; Dose.FC.CTG (ENR+CD organoids; [8]): −0.317 log2 fold change; Dose.FC.CTG (ENR+CD organoids; [9]): −0.332 log2 fold change; Dose.FC.CTG (ENR+CD organoids; [10]): −0.327 log2 fold change; Dose.FC.LYZ.S [1, 7]: 0.036 log2 fold change; Dose.FC.LYZ.S [1, 8]: −0.063 log2 fold change; Dose.FC.LYZ.S [1, 9]: −0.042 log2 fold change; Dose.FC.LYZ.S [1, 10]: −0.134 log2 fold change; Dose.FC.LYZ.NS [2, 7]: 0.022 log2 fold change; Z.LYZ.NS ([2]; dose 0.08 uM): 0.188; Dose.FC.LYZ.NS [2, 8]: −0.060 log2 fold change; Z.LYZ.NS ([2]; dose 0.40 uM): −0.524; Dose.FC.LYZ.NS [2, 9]: 0.032 log2 fold change; Z.LYZ.NS ([2]; dose 2.00 uM): 0.283; Dose.FC.LYZ.NS [2, 10]: −0.074 log2 fold change; Z.LYZ.NS ([2]; dose 10.00 uM): −0.643 |
| CC(C)NCC(O)COc1ccc(COCCOC(C)C)cc1 (centres unmarked) [Bisoprolol fumarate] | – | – | – | – | −0.104 | −0.057 | −0.020 | 0.058 | 0.086 | 0.129 | 0.074 | 0.015 | 0.085 | 0.739 | 0.075 | 0.649 | 0.075 | 0.656 | 0.003 | 0.027 | – |
| C[C@H](Cn1cnc2c(N)ncnc21)OCP(=O)(O)O [Tenofovir] | – | – | – | – | 0.019 | −0.084 | −0.129 | −0.337 | 0.045 | −0.080 | −0.171 | −0.271 | 0.077 | 0.673 | −0.076 | −0.662 | −0.132 | −1.153 | −0.218 | −1.899 | Z.CTG (standard z score) (ENR+CD organoids; dose 0.08 uM): 0.045; Z.CTG (standard z score) (ENR+CD organoids; dose 0.40 uM): −0.200; Z.CTG (standard z score) (ENR+CD organoids; dose 2.00 uM): −0.308; Z.CTG (standard z score) (ENR+CD organoids; dose 10.00 uM): −0.804 |
| O=C(O[C@H]1C[C@H]2CC[C@@H](C1)[N+]21CCCC1)C(O)(c1ccccc1)c1ccccc1 [Trospium chloride] | – | – | – | – | 0.083 | −0.031 | 0.200 | 0.148 | 0.119 | 0.117 | −0.008 | 0.084 | 0.169 | 1.470 | 0.218 | 1.895 | −0.002 | −0.017 | 0.102 | 0.885 | – |
